The source of these data is PMC11966994 (Emerging Microbes & Infections, 2025).

Molecules are shown by their SMILES.

One series has as its system IFNα/β mRNA. The format is cell-based.
Series [1] can be described thus: in vitro. The following applies: African green monkey.
Series [2] can be described thus: in vitro. The settings on record: human.
The conditions of series [3]: rat, in vivo, 10 mg/kg; cited from earlier work.
Another series relates to influenza virus. It is filed as cell-based.

On to `O=C(O[C@@H]1[C@@H](O)[C@H](Oc2cc(O)c(C(=O)CCc3ccccc3)c(O)c2)O[C@@H]2COC(=O)c3cc(O)c(O)c(O)c3-c3c(cc(O)c(O)c3O)C(=O)O[C@@H]12)c1cc(O)c(O)c(O)c1` [Compound 46, Thonningianin A], for which the “effect on IFNα/β mRNA expression levels” value in the series with IFNα/β mRNA is given as “did not significantly affect”. For the same compound, the CC50 in “in vitro [1]” was found to be 10.6 µM; in the series “in vitro [2]”, 20.2 µM. Also, in series [3], the t₁/₂ was 3.69 h. Also, the “effect on influenza virus replication” value in the series with influenza virus was “did not significantly affect”.
